Measured values: patent US20250213700A1, “COMPOUNDS, COMPOSITIONS, AND METHODS FOR CELL-SPECIFIC PHARMACOLOGY” (Duke University, priority 2022, published 2025)

Tests used:
[1] = biodistribution to cortex after lateral ventricle infusion (wide-field fluorescence through cranial window); assay type: in vivo, mouse; settings: -HTP mice, high dose into lateral ventricle
Excerpt: To maintain control of the ambient drug concentration in vivo, thus far a cannula was implanted in close proximity to the desired brain target. (FIG. 5) However, optical and electrical brain interfaces often occupy this precious real estate. For example, cranial window technologies, in which a portion of the skull is replaced with a glass window, have become instrumental in studying the neocortex. Application of drugs through a glass window remains an unsolved problem, as access ports will generally close due to scarring, and temporary removal of the window can compromise the preparation. Thus, it was asked whether DART.2 could enable dosing from a distance via the cerebrospinal fluid (CSF). Delivery via the cisterna magna was first explored, given reports that dextran tracers delivered at this site achieve rapid biodistribution throughout the neocortex parenchyma. Although there was some preliminary success with this approach, it was found difficult to establish mechanically stable cannulation of the cisterna magna, owing to its position below the base of the skull and to the mobility of the neck muscles. […] Following surgical recovery, a high dose of Alexa647.1DART.2 was fused into the LV (dose, volume) and monitored wide-field fluorescence intensity through the cranial window. Fluorescence intensity peaked 2 hr later, and largely cleared by 24 hours (i2055,i2056). […]

[2] = system: +HTP somatostatin interneurons and -HTP neurons of V1 visual cortex; test: 2P calcium imaging of V1 visual responses after contralateral ventricle infusion, SOM-Cre mice; assay type: in vivo, mouse; settings: infused with YM90K.1DART.2 into contralateral ventricle, widefield fluorescence
Description: Top left: Mice expressing pan-neuronal GCaMP8s with SOM-specific ^+HTP. Window over V1. DART delivered via the contralateral ventricle. Bottom left: In-vivo and ex-vivo expression and dye capture. Right: Mice presented oriented visual gratings, 2P Ca^2+ imaging obtained before and 5-6 hr after infusion of 0.3 nmole Alexa647.1^DART.2+3 nmole YM90K.1^DART.2 (2 μL volume) into the contralateral ventricle.
Next, it was examined whether this strategy could deliver a pharmacologically active DART to genetically defined cells. A surgery was performed in which AAV DIO +HTPGPI was injected into the V1 visual cortex of SOM-Cre mice for cell-specific expression in somatostatin interneurons, along with a co-injected AAV-GCaMP8s virus for pan-neuronal neural activity monitoring. A cannula was implanted in the contralateral ventricle, and glass window over V1. Following surgical recovery, a mixture of YM90K.1DART.2+Alexa647.1DART.2 was infused. […] To test for pharmacological effects, 2P calcium imaging of +HTP and −HTP was performed while mice were presented with oriented gratings. A reduction in +HTP visual response was apparent 4 hours post DART infusion. This reduction persisted even after 24 hours post infusion.

[3] = molecular target: T1, HTP on retinal ganglion cells (Rhodococcus rhodochrous, UniProt P0A3G2, A155T/A167V/A172T/A224E/C128F/C176G/D78G/E160K/E257K/H272N/K175M/K195N/L47V/L88M/N227D/S58T/T264A/Y273L/Y87F); test: tracer dye capture on retinal ganglion cells; assay type: cell-based, mouse; settings: 30 nM, 15 min, after washout
T1 construct: SSnlg signal peptide (residues 1-49 of mouse neuroligin-1) (N); Thy1 GPI anchor signal (C); expressed in transfected cells; host or cells: mouse neurons transduced in vivo with AAV-DIO-+HTPGPI (D1-Cre dorsal striatum; PV::cre retinal ganglion cells)
Description: FIG. 6A-6C show bidirectional manipulation of AMPAR and GABAAR neurotransmission. (FIG. 6A) Viral strategy (top panel). Intravitreal AAV7m8-DIO-HTPGPI-2A-dTomao achieves retinal ganglion cell (RGC) expression in PV::cre mice. Experimental overview (second panel from the top to bottom panel). Top: whole retina; synaptic current is evoked (stim) and recorded (voltage-clamp of dTomato+ RGC), with ionic and pharmaceutical conditions chosen to isolate the AMPAR or GABAAR. A 10 min baseline is followed by 15 min application of 300 nM Rx^DART.2+30 nM Alexa^647.1DART.2. […] (FIG. 6B) CMPDA.2^DART.2 (left). Electropositive spacer (PDB 3RNN). […] EPSC waveform before and after CMPDA.2^DART.2. AMPAR structural model (middle) (composite of PDB 5WEO, 3RNN, and 1FTL). Cylinder depicts cell membrane. CMPDA.2^DART.2 binds within an inter-clamshell interface (2 per receptor). YM90K.1^DART.2 binds the orthosteric glutamate binding site in the clamshell (4 per receptor). YM90K.1^DART.2 (right). […]
Next it was asked whether bidirectional modulation of the AMPAR and GABAAR could be achieved in the same cell type. A preparation was focused on in which electrophysiology is the primary readout, enabling resolution of the amplitude and millisecond time-constant of synaptic transmission. […] A whole-mount retina was later prepared and evoked synaptic currents were measured under conditions that isolate the AMPAR or GABAAR. […]

T1 sequence (P0A3G2 other isoform, or with tags, fused parts or gaps with the stated changes): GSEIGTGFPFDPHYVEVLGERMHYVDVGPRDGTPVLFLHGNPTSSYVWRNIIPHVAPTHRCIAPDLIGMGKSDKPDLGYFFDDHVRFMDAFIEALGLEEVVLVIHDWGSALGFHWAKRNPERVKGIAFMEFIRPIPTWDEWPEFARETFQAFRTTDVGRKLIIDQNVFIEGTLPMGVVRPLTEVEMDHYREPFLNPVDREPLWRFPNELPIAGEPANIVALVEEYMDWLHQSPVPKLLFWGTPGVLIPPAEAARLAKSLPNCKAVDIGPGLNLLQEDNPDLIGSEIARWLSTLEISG

For COc1cc(CCCCl)ccc1CCOCCNC(=O)c1ccc(CNC(=O)CCOCCOCCOCCOCCOCCOCCOCCOCCOCCOCCOCCOCCOCCOCCOCCOCCOCCOCCOCCOCCOCCOCCOCCOCCOCCOCCOCCOCCOCCOCCOCCOCCOCCOCCOCCOCCn2cc(COCCOCCOCCOCCOCCOCCNC(=O)CCCCCC3(C)\C(=C/C=C/C=C/C4=[N+](CCCS(=O)(=O)O)c5ccc(S(=O)(=O)[O-])cc5C4(C)C)N(CCCS(=O)(=O)O)c4ccc(S(=O)(=O)O)cc43)nn2)cc1 (centres unmarked) [Alexa647.1DART.2], the “time by which fluorescence largely cleared” value [1] was no more than 24 h, the “time to peak fluorescence intensity over cortex” value [1] was 2 h and the “time for DART capture to reach steady state” value [2] was 4 to 8 h. The “dye capture on +HTP cells” value [3] was “robust capture” and the “dye capture on ddHTP or -HTP cells” value [3] was “no detectible capture”.
